Test results reported in US6362179B1, “Salts of an optically-active sulfoxide derivative” (Sankyo Company, Limited, priority 1997, dated 2002).

Tests used:
[1] = biological target: NK1 receptors (Homo sapiens, UniProt P25103); assay: Pharmacological test of antagonistic activity against NK1 receptors in vitro; settings: test made by the present inventors
[2] = biological target: T1, NK1 receptor (Cavia porcellus, UniProt P30547); assay: Inhibitory effect against increased vascular permeability induced by substance P; format: in vivo, guinea pig; settings: male Hartley guinea pigs; for ID50 (mg/kg, p.o.): oral administration 1 hour before SP (1 μg/kg i.v.), Evans blue leakage into primary bronchus; for Inhibitory rate (%) on oral administration at 3.3 mg/kg: 3.3 mg/kg p.o. 1 hour before SP, pigment leakage
T1 construct: increased vascular permeability induced by substance P (SP), an NK1 receptor agonist; from tissue; host or cells: living male Hartley guinea pig; pigment leakage at the primary bronchus
Procedure: Inhibitory Effect Against Increased Vascular Permeability
The inhibitory effect on increased vascular permeability induced by substance P (SP), an NK1 receptor agonist, was assessed based on the amount of pigment leakage as an index using guinea pigs (body weight: approx. 400 g, male Hartley guinea pigs).
A pigment (Evans blue: 40 mg/kg) was administered to the femoral vein of a guinea pig anesthetized with pentobarbital (30 mg/kg, i.p.) and immediately after that, SP (1 μg/kg) was intravenously injected to induce accentuation of vascular permeability. Fifteen minutes after the injection, the guinea pig was sacrificed under anesthesia with chloroform and the amount of the pigment leaked into the primary bronchus site was measured in accordance with Harada's method (J. Pharm. Pharmacol. 23, 218(1971)). A test substance was suspended in a 0.5% tragacanth suspension and orally administered to a guinea pig 1 hour before induction by SP. Its inhibitory action was determined by the ratio of the pigment leaked from the test-substance-administered group to that from the non-administered group. In Table 1, 50% inhibitory dose (ID50) and inhibitory rate in the case of oral administration at 3.3 mg/kg are shown.

[3] = biological target: T2, NK2 receptor (Cavia porcellus, UniProt Q64077); assay: Inhibitory effect against bronchoconstriction induced with [Nle10]-NKA[4-10]; format: in vivo, guinea pig; settings: for ID50 (mg/kg, p.o.): male Hartley guinea pigs, oral administration one hour before [Nle10]-NKA[4-10] (4 μg/kg i.v.), AUC of airway pressure
T2 construct: bronchoconstriction induced with [Nle^10]-NKA[4-10], an NK2 receptor agonist; from tissue; host or cells: living male Hartley guinea pig; airway pressure (Konzett-Roessler)
T2 sequence (Q64077 1-402): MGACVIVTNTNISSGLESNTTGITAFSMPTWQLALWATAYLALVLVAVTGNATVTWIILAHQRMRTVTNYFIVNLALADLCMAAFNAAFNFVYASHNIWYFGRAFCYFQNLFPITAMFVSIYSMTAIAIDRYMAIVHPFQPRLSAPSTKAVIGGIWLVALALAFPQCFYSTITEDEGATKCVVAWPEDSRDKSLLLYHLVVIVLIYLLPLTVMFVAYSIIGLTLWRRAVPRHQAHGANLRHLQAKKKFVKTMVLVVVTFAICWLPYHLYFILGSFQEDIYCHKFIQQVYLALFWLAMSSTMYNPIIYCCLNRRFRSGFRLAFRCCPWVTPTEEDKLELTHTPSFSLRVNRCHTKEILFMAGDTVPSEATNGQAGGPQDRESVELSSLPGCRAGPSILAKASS

T1 sequence (P30547 whole entry): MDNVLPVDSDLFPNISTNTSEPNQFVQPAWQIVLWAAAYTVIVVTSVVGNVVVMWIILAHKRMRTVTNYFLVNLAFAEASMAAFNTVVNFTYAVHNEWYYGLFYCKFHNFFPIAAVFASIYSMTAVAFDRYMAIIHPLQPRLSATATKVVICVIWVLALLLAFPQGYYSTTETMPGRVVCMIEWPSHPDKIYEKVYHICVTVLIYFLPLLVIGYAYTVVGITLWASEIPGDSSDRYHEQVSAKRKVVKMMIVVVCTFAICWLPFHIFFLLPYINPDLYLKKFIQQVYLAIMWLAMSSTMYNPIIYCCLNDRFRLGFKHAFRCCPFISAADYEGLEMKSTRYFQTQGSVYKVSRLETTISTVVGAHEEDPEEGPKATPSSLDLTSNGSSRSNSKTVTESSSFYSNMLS
NK1 receptors, sequence (P25103 whole entry): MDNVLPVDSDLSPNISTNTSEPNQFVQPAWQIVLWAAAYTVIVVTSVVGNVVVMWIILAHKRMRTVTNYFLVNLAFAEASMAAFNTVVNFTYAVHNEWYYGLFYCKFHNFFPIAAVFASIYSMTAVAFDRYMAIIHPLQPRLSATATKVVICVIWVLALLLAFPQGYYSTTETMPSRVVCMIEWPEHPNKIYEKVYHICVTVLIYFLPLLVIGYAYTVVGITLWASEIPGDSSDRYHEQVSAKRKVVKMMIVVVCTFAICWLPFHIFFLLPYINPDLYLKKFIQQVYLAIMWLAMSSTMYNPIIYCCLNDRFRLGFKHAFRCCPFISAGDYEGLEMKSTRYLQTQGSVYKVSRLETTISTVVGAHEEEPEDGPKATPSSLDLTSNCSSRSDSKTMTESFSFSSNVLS

| Inhibitory rate (%) on oral administration at 3.3 mg/kg [2] [%] | ID50 (mg/kg, p.o.) [3] [mg/kg] | SMILES | antagonistic activity against NK1 receptors in vitro [1] | ID50 (mg/kg, p.o.) [2] | ED50 ([3]; guinea pig, guinea pigs, intravenous injection of test substance, read-out: ID50 (the source's name)) [mg/kg] |
| --- | --- | --- | --- | --- | --- |
| – | – | CN(C[C@@H](CCN1CCC2(CCc3ccccc32)CC1)c1ccc(Cl)c(Cl)c1)C(=O)c1ccccc1 [B] | markedly weak | – | – |
| – | – | Cc1cc(C)cc(C(=O)N(C)C[C@@H](CCN2CCC3(CC2)CN(S(C)(=O)=O)c2ccccc23)c2ccc(Cl)c(Cl)c2)c1 [Compound A, reference compound] | – | greater than 10 mg/kg | > 10 |
| 48.0 | 0.51 | COc1cc(C(=O)N2CCO[C@](CCN3CCC4(CC3)c3ccccc3C[S@@+]4[O-])(c3ccc(Cl)c(Cl)c3)C2)cc(OC)c1OC.Cl [Compound of Ex. 1, 1-{2-[(2R)-(3,4-Dichlorophenyl)-4-(3,4,5-trimethoxybenzoyl)morpholin-2-yl]ethyl}spiro[benzo(c)thiophene-1(3H),4′-piperidin]-(2S)-oxide hydrochloride] | – | 5.1 mg/kg | – |
| 46.8 | 0.54 | COc1cc(C(=O)N2CCOC(CCN3CCC4(CC3)c3ccccc3C[S+]4[O-])(c3ccc(Cl)c(Cl)c3)C2)cc(OC)c1OC.O=C(O)/C=C/C(=O)O [Compound of Ex. 2, 1-{2-[(2R)-(3,4-Dichlorophenyl)-4-(3,4,5-trimethoxybenzoyl)morpholin-2-yl]ethyl}spiro[benzo(c)thiophene-1(3H),4′-piperidin]-(2S)-oxide fumarate] | – | – | – |
